One assay relates to HBV. In words: Determination of HBV DNA from the supernatants of HepAD38 cells (anti-HBV activity). Type of assay: cell-based, hepatitis B virus. The following applies: Hepatitis B virus, read-out: Cell Activity (EC50). In outline:
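EC50 values were obtained by non-linear regression of HBV DNA copy numbers measured by qPCR against pCH-9/3091 plasmid standards. The DNA came from filtered supernatants collected on day 6. Before that, tetracycline-withdrawn HepAD38 cells had been exposed to serial half-log compound dilutions, with tetracycline-treated cells as the non-producing control.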

A further assay has as its target HBV core protein (UniProt P03146). Type of assay: biochemical. The note with it: read-out: Assembly Activity (IC50); BODIPY-FL labelled core protein, assembly started with NaCl, read after 6 min. Put shortly:
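Compounds tested at 8 concentrations in 0.5-log steps from 100, 31.6 or 10 μM against 1.0–2.0 μM BODIPY-FL-labelled Cys150 core dimers (residues 1–149), 50 mM HEPES pH 7.5. NaCl ([…] final) triggered assembly; quenching read at 6 min, 477/525 nm, with 2.5 M and 0 M NaCl as controls; EC50 by nonlinear fit.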

The mark [1] stands for this setting: 144 h, HBV DNA in HepAD38 supernatant at day 6.

Read-outs that look alike come from different tables or passages of the source.

Chain of HBV core protein (P03146 whole entry, looked up, the tested form may be a part): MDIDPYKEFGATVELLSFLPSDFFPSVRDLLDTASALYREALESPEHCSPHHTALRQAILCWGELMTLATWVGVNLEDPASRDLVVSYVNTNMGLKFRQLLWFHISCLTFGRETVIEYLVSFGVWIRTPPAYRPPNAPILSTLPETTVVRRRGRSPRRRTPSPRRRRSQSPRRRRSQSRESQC

Turning to `CC(C)OC(=O)[C@H](C)NP(=O)(OCCNc1nc2c(s1)CN(C(=O)c1cc3c(F)cc(F)cc3[nH]1)CC2)Oc1ccccc1` (stereo partly drawn) [Example 100, Propan-2-yl (2S)-2-{[(2-{[5-(4,6-difluoro-1H-indole-2-carbonyl)-4H,5H,6H,7H-[1,3]thiazolo[5,4-c]pyridin-2-yl]amino}ethoxy)(phenoxy)phosphoryl]amino}propanoate], the EC50 (as a rule, the concentration that produces a half-maximal response) in the assay on HBV (HePAD38, 144 h) fell in the range of 1 to 10 µM. In addition, the IC50 – broadly, the midpoint of a concentration-inhibition curve – at HBV core protein was under 100 µM.
As for `C[C@H](O)CNc1nc2c(s1)CN(C(=O)c1cc3ccccc3[nH]1)CC2` [Example 99, (2S)-1-{[5-(1H-indole-2-carbonyl)-4H,5H,6H,7H-[1,3]thiazolo[5,4-c]pyridin-2-yl]amino}propan-2-ol], in the assay with HBV (setting [1]), the EC50 is under 1 µM. The IC50 on HBV core protein was under 5 µM.
On the same counts, the results for `O=C(c1cc2ccccc2[nH]1)N1CCc2nc(CNCc3ccccc3)sc2C1` [Example 74, Benzyl({[5-(1H-indole-2-carbonyl)-4H,5H,6H,7H-[1,3]thiazolo[5,4-c]pyridin-2-yl]methyl})amine] are 1 to 10 µM and under 100 µM.
As for `COCC1(CNc2nc3c(s2)CN(C(=O)c2cc4ccccc4[nH]2)CC3)CC1` [Example 340, 5-(1H-indole-2-carbonyl)-N-{[1-(methoxymethyl)cyclopropyl]methyl}-4H,5H,6H,7H-[1,3]thiazolo[5,4-c]pyridin-2-amine], the EC50 with HBV (setting [1]) is under 1 µM. The IC50 on HBV core protein is under 5 µM.
The like results for `N#Cc1ccc(F)c2[nH]c(C(=O)N3CCc4nc(NCC5CCOC5)sc4C3)cc12` (stereo not drawn) [Example 117, 7-fluoro-2-(2-{[(oxolan-3-yl)methyl]amino}-4H,5H,6H,7H-[1,3]thiazolo[5,4-c]pyridine-5-carbonyl)-1H-indole-4-carbonitrile] were, in that order, 1 to 10 µM and under 100 µM.
The like results for `O=C(c1cc2c(C(F)(F)F)cccc2[nH]1)N1CCc2nc(NCC3CCOC3)sc2C1` (stereo not drawn) [Example 123, 5-(4-(trifluoromethyl)-1H-indole-2-carbonyl)-N-[(oxolan-3-yl)methyl]-4H,5H,6H,7H-[1,3]thiazolo[5,4-c]pyridin-2-amine] were, in that order, under 1 µM and 5 to 10 µM.
On the same counts, the results for `CCc1cc(F)cc2[nH]c(C(=O)N3CCc4nc(NCC5(CO)CC5)sc4C3)cc12` [Example 248, [1-({[5-(4-ethyl-6-fluoro-1H-indole-2-carbonyl)-4H,5H,6H,7H-[1,3]thiazolo[5,4-c]pyridin-2-yl]amino}methyl)cyclopropyl]methanol] are under 1 µM and under 5 µM.
Take `O=C(c1cc2ccccc2[nH]1)N1CCc2nc(NC3(c4c[nH]nn4)CC(F)(F)C3)sc2C1` [Example 430, N-[3,3-difluoro-1-(1H-1,2,3-triazol-4-yl)cyclobutyl]-5-(1H-indole-2-carbonyl)-4H,5H,6H,7H-[1,3]thiazolo[5,4-c]pyridin-2-amine]: the EC50 in the assay with HBV (setting [1]) is under 1 µM. The IC50 on HBV core protein is under 5 µM.
On the same counts, the results for `O=C(c1cc2c(F)ccc(F)c2[nH]1)N1CCc2nc(NC3CCOC3)sc2C1` (stereo not drawn) [Example 132, 5-(4,7-difluoro-1H-indole-2-carbonyl)-N-(oxolan-3-yl)-4H,5H,6H,7H-[1,3]thiazolo[5,4-c]pyridin-2-amine] are under 1 µM and under 5 µM.
Turning to `CCc1cc(F)cc2[nH]c(C(=O)N3CCc4nc(NCC5(O)CCC5)sc4C3)cc12` [Example 363, 1-({[5-(4-ethyl-6-fluoro-1H-indole-2-carbonyl)-4H,5H,6H,7H-[1,3]thiazolo[5,4-c]pyridin-2-yl]amino}methyl)cyclobutan-1-ol], the EC50 in the assay with HBV (setting [1]) is under 1 µM. The IC50 at HBV core protein is under 5 µM.
On the same counts, the results for `CC(=O)N1CCC(C(=O)Nc2nc3c(s2)CN(C(=O)c2cc4ccccc4[nH]2)CC3)CC1` [Example 410, 1-acetyl-N-[5-(1H-indole-2-carbonyl)-4H,5H,6H,7H-[1,3]thiazolo[5,4-c]pyridin-2-yl]piperidine-4-carboxamide] are under 1 µM and under 5 µM.
On the same counts, the results for `CC(O)c1cc(F)cc2[nH]c(C(=O)N3CCc4nc(NCC5(CO)CC5)sc4C3)cc12` (stereo not drawn) [Example 249, 1-{6-fluoro-2-[2-({[1-(hydroxymethyl)cyclopropyl]methyl}amino)-4H,5H,6H,7H-[1,3]thiazolo[5,4-c]pyridine-5-carbonyl]-1H-indol-4-yl}ethan-1-ol] are under 1 µM and 5 to 10 µM.
The like results for `O=C(c1cc2c(F)cc(F)c(F)c2[nH]1)N1CCc2nc(NCC3CCOC3)sc2C1` (stereo not drawn) [Example 106, 5-(4,6,7-trifluoro-1H-indole-2-carbonyl)-N-[(oxolan-3-yl)methyl]-4H,5H,6H,7H-[1,3]thiazolo[5,4-c]pyridin-2-amine] were, in that order, under 1 µM and under 5 µM.
On to `Nc1nc2c(s1)CN(C(=O)c1cc3c(CO)cccc3[nH]1)CC2` [Example 9, (2-{2-amino-4H,5H,6H,7H-[1,3]thiazolo[5,4-c]pyridine-5-carbonyl}-1H-indol-4-yl)methanol], for which the EC50 in the assay with HBV (setting [1]) was 1 to 10 µM. In addition, at HBV core protein, the IC50 lay within 5 to 10 µM.
With `O=C(c1cc2ccccc2[nH]1)N1CCc2nc(CO)sc2C1` [Example 31, [5-(1H-indole-2-carbonyl)-4H,5H,6H,7H-[1,3]thiazolo[5,4-c]pyridin-2-yl]methanol], the EC50 in the assay with HBV (setting [1]) lay in the range of 1 to 10 µM. Besides, the IC50 at HBV core protein is 5 to 10 µM.
Regarding `Nc1nc2c(s1)CN(C(=O)c1cc3ccc(Cl)cc3[nH]1)CC2` [Example 156, 5-(6-chloro-1H-indole-2-carbonyl)-4H,5H,6H,7H-[1,3]thiazolo[5,4-c]pyridin-2-amine], the EC50 with HBV (setting [1]) was under 1 µM. Besides, the IC50 at HBV core protein is under 5 µM.
On the same counts, the results for `O=C(c1cc2ccccc2[nH]1)N1CCc2nc(NS(=O)(=O)C3CC3)sc2C1` [Example 6, N-[5-(1H-indole-2-carbonyl)-4H,5H,6H,7H-[1,3]thiazolo[5,4-c]pyridin-2-yl]cyclopropanesulfonamide] are under 1 µM and under 100 µM.
On the same counts, the results for `N#Cc1cccc2[nH]c(C(=O)N3CCc4nc(NCC5CCOC5)sc4C3)cc12` (stereo not drawn) [Example 104, 5-(4-cyano-1H-indole-2-carbonyl)-N-[(oxolan-3-yl)methyl]-4H,5H,6H,7H-[1,3]thiazolo[5,4-c]pyridin-2-amine] are 1 to 10 µM and 5 to 10 µM.
On the same counts, the results for `O=C(c1cc2ccccc2[nH]1)N1CCc2nc(NC[C@@H]3C[C@@H]4CC[C@H]3O4)sc2C1` (racemic) [Example 33, (+/−)-trans-5-(1H-indole-2-carbonyl)-N-{[(1R,2S,4S)-7-oxabicyclo[2.2.1]heptan-2-yl]methyl}-4H,5H,6H,7H-[1,3]thiazolo[5,4-c]pyridin-2-amine] are under 1 µM and under 5 µM.
As to `O=C(Nc1nc2c(s1)CN(C(=O)c1cc3c(C(F)F)cc(F)cc3[nH]1)CC2)C1CCOCC1` [Example 402, N-{5-[4-(difluoromethyl)-6-fluoro-1H-indole-2-carbonyl]-4H,5H,6H,7H-[1,3]thiazolo[5,4-c]pyridin-2-yl}oxane-4-carboxamide], the EC50 in the assay on HBV (setting [1]) is under 1 µM. Besides, the IC50 on HBV core protein is under 5 µM.
The like results for `O=C1CC(C(=O)Nc2nc3c(s2)CN(C(=O)c2cc4ccccc4[nH]2)CC3)CCN1` (stereo not drawn) [Example 412, N-[5-(1H-indole-2-carbonyl)-4H,5H,6H,7H-[1,3]thiazolo[5,4-c]pyridin-2-yl]-2-oxopiperidine-4-carboxamide] were, in that order, under 1 µM and under 5 µM.
The like results for `CC(C)(C)Nc1nc2c(s1)CN(C(=O)c1cc3ccccc3[nH]1)CC2` [Example 71, N-tert-butyl-5-(1H-indole-2-carbonyl)-4H,5H,6H,7H-[1,3]thiazolo[5,4-c]pyridin-2-amine] were, in that order, under 1 µM and under 5 µM.
The like results for `Nc1nc2c(s1)CN(C(=O)c1cc3c(F)c(F)ccc3[nH]1)CC2` [Example 172, 5-(4,5-difluoro-1H-indole-2-carbonyl)-4H,5H,6H,7H-[1,3]thiazolo[5,4-c]pyridin-2-amine] were, in that order, under 1 µM and under 5 µM.
In the case of `CC(C)(C)OC(=O)N1CCOC(CNc2nc3c(s2)CN(C(=O)c2cc4ccccc4[nH]2)CC3)C1` (stereo not drawn) [Example 273, tert-butyl 2-({[5-(1H-indole-2-carbonyl)-4H,5H,6H,7H-[1,3]thiazolo[5,4-c]pyridin-2-yl]amino}methyl)morpholine-4-carboxylate], the EC50 in the assay with HBV (setting [1]) is under 1 µM. The half-maximal inhibitory concentration (IC50) at HBV core protein fell in the range of 5 to 10 µM.
Regarding `Nc1nc2c(s1)CN(C(=O)c1cc3c(C(F)F)cccc3[nH]1)CC2` [Example 293, 5-[4-(difluoromethyl)-1H-indole-2-carbonyl]-4H,5H,6H,7H-[1,3]thiazolo[5,4-c]pyridin-2-amine], the half-maximal effective concentration (EC50) in the assay with HBV (setting [1]) was under 1 µM. The half-maximal inhibitory concentration (IC50) on HBV core protein is under 5 µM.
Regarding `O=C1CCC(CNc2nc3c(s2)CN(C(=O)c2cc4ccccc4[nH]2)CC3)N1` (stereo not drawn) [Example 404, 5-({[5-(1H-indole-2-carbonyl)-4H,5H,6H,7H-[1,3]thiazolo[5,4-c]pyridin-2-yl]amino}methyl)pyrrolidin-2-one], the EC50 in the assay on HBV (setting [1]) is under 1 µM. The IC50 at HBV core protein is under 5 µM.
The like results for `CC(F)(F)c1cc(F)cc2[nH]c(C(=O)N3CCc4nc(N)sc4C3)cc12` [Example 290, 5-[4-(1,1-difluoroethyl)-6-fluoro-1H-indole-2-carbonyl]-4H,5H,6H,7H-[1,3]thiazolo[5,4-c]pyridin-2-amine] were, in that order, under 1 µM and under 5 µM.

Source of the values: patent US11267825B2 (AICURIS GMBH & CO. KG, priority 2017, dated 2022).
